# pIC50: −log10 of the molar value.
# What was measured:
# [1] = target: Coagulation factor XIa (Homo sapiens (Human), UniProt P03951); assay: Factor XIa Assay; assay type: biochemical; details: human factor XIa 0.04 nM, substrate GPR-AFC, 30 min pre-incubation at 25° C., pH 7.4; read-out: FXIa IC50
# Method: (§1) The effectiveness of a compound of the present invention as an inhibitor of Coagulation factor XIa can be determined using a relevant purified serine protease, and an appropriate synthetic substrate. The rate of hydrolysis of the chromogenic or fluorogenic substrate by the relevant serine protease was measured both in the absence and presence of compounds of the present invention. Assays were conducted at rt or at 37° C. […] A decrease in the rate of fluorescence change in the presence of inhibitor is indicative of enzyme inhibition. Such methods are known to one skilled in the art. The results of this assay are expressed as the half-maximal inhibitory concentrations (IC50), or the inhibitory constant, Ki.
# Compounds were pre-incubated for 30 min at 25° C. with human (0.04 nM) factor XIa in 50 mM HEPES buffer with 150 mM sodium chloride, 5 mM calcium chloride, 0.1% PEG 8000, pH 7.4. factor XIa enzymatic activity was determined by addition of the substrate glycine-proline-arginine-7-amido-4-trifluoromethylcoumarin (GPR-AFC) and measurement of the fluorescence at 400/505 nm after a 60 min incubation at 25° C. The % inhibition for each data point was calculated from the data and analyzed using the log (inhibitor) vs. response four parameters equation to determine the half-maximal inhibitory concentrations (IC50). The IC50 were converted to equilibrium inhibitory constants (Ki) using the Cheng-Prusoff equation.
# [2] = target: Human plasma kallikrein (Homo sapiens (Human), UniProt P03952); assay: Plasma Kallikrein Assay; assay type: biochemical; details: purified Human plasma kallikrein 0.5 nM, substrate Acetyl-K-P-R-AFC, pH 7.4; read-out: PKal IC50
# Method: as §1, with “plasma kallikrein” for “Coagulation factor XIa”
# Plasma kallikrein determinations were made in 50 mM HEPES buffer at pH 7.4 containing 150 mM NaCl, 5 mM CaCl2, and 0.1% PEG 8000 (polyethylene glycol; Fisher Scientific). Determinations were made using purified Human plasma kallikrein at a final concentration of 0.5 nM (Enzyme Research Laboratories) and the synthetic substrate, Acetyl-K-P-R-AFC (Sigma #C6608) at a concentration of […].
# Activity assays were performed by diluting a stock solution of substrate at least tenfold to a final concentration ≤0.2 Km into a solution containing enzyme or enzyme equilibrated with inhibitor. Times required to achieve equilibration between enzyme and inhibitor were determined in control experiments. The reactions were performed under linear progress curve conditions and fluorescence increase measured at 405 Ex/510 Em nm. Values were converted to percent inhibition of the control reaction (after subtracting 100% Inhibition value). IC50 was determined by inflection point from a four parameter logistic curve fit. Ki was calculated using the Cheng Prusoff equation, Ki=IC50/(1+[S]/Km)).
# Chain of Human plasma kallikrein (P03952 391-638 limits assumed): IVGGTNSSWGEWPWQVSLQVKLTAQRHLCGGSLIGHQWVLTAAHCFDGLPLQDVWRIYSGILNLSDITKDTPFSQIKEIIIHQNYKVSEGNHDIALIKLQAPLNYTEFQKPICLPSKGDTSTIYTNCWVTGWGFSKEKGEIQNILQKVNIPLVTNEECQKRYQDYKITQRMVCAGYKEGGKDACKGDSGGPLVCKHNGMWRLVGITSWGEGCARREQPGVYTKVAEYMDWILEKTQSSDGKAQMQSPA
# Chain of Human plasma kallikrein (P03952 20-390 partner limits assumed): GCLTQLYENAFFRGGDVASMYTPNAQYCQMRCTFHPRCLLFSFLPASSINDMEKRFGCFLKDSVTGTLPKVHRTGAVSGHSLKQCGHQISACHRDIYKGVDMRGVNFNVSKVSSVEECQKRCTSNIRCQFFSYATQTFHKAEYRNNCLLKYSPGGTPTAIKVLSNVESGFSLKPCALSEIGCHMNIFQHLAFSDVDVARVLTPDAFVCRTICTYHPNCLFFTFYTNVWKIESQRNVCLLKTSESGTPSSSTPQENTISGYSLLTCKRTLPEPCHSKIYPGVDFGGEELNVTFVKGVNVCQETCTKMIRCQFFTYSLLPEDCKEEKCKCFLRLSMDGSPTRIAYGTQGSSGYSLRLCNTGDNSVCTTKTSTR
# Chain of Coagulation factor XIa (P03951 388-625 limits assumed): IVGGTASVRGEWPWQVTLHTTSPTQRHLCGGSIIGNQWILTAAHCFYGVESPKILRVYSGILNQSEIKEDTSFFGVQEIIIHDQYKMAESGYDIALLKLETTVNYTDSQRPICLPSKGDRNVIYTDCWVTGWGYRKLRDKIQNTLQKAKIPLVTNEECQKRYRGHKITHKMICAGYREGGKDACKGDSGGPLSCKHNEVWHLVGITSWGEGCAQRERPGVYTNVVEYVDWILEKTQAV
# Chain of Coagulation factor XIa (P03951 19-387 partner limits assumed): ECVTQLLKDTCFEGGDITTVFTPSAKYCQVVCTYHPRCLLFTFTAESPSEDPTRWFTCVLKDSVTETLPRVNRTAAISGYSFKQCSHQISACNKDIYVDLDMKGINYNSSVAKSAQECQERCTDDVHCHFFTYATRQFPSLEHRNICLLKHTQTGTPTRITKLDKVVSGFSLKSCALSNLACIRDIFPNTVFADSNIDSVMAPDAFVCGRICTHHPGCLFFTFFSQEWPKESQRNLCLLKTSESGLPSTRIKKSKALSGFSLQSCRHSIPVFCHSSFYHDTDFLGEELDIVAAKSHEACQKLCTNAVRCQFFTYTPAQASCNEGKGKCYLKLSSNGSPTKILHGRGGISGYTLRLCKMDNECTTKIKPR
pIC50 [1],pIC50 [2],SMILES
5.00,7.35,"O=C1Nc2ccc(Cl)c(F)c2[C@]2(CCN(c3cncc(C(=O)NCc4ccc(N5CCC5)nc4)n3)C2)O1 [Example 37, (S)-N-((6-(Azetidin-1-yl)pyridin-3-yl)methyl)-6-(6-chloro-5-fluoro-2-oxo-1,2dihydrospiro[benzo[d][1,3]oxazine-4,3′-pyrrolidin]-1′-yl)pyrazine-2-carboxamide]"
5.00,7.45,"O=C1Nc2ccc(Cl)c(F)c2[C@]2(CCN(c3cncc(C(=O)NCc4ccc(N5CC[C@H](F)C5)nc4)n3)C2)O1 [Example 38, (S)-6-(6-Chloro-5-fluoro-2-oxo-1,2-dihydrospiro[benzo[d][1,3]oxazine-4,3′-pyrrolidin]-1′-yl)-N-((6-((S)-3-fluoropyrrolidin-1-yl)pyridin-3-yl)methyl)pyrazine-2-carboxamide]"
5.00,7.59,"O=C1Nc2ccc(Cl)c(F)c2[C@]2(CCN(c3cncc(C(=O)NCc4ccc(N5CC[C@@H](F)C5)nc4)n3)C2)O1 [Example 39, (S)-6-(6-Chloro-5-fluoro-2-oxo-1,2-dihydrospiro[benzo[d][1,3]oxazine-4,3′-pyrrolidin]-1′-yl)-N-((6-((R)-3-fluoropyrrolidin-1-yl)pyridin-3-yl)methyl)pyrazine-2-carboxamide]"
5.00,7.73,"O=C1Nc2ccc(Cl)c(F)c2[C@]2(CCN(c3cncc(C(=O)NCc4ccc(N5CC6CC6C5)nc4)n3)C2)O1 (stereo partly drawn) [Example 40, N-((6-(3-Azabicyclo[3.1.0]hexan-3-yl)pyridin-3-yl)methyl)-6-((S)-6-chloro-5-fluoro-2-oxo-1,2-dihydrospiro[benzo[d][1,3]oxazine-4,3′-pyrrolidin]-1′-yl)pyrazine-2-carboxamide]"
5.00,7.45,"O=C1Nc2ccc(Cl)c(F)c2[C@]2(CCN(c3cncc(C(=O)NCc4ccc(N5CCCCC5)nc4)n3)C2)O1 [Example 41, (S)-6-(6-Chloro-5-fluoro-2-oxo-1,2-dihydrospiro[benzo[d][1,3]oxazine-4,3′-pyrrolidin]-1′-yl)-N-((6-(piperidin-1-yl)pyridin-3-yl)methyl)pyrazine-2-carboxamide]"
5.00,7.93,"O=C1Nc2ccc(Cl)c(F)c2[C@]2(CCN(c3cncc(C(=O)NCc4ccc(N5CCOCC5)nc4)n3)C2)O1 [Example 42, (S)-6-(6-Chloro-5-fluoro-2-oxo-1,2-dihydrospiro[benzo[d][1,3]oxazine-4,3′-pyrrolidin]-1′-yl)-N-((6-morpholinopyridin-3-yl)methyl)pyrazine-2-carboxamide]"
5.00,8.77,"CN1CCN(c2ccc(CNC(=O)c3cncc(N4CC[C@]5(C4)OC(=O)Nc4ccc(Cl)c(F)c45)n3)cn2)CC1 [Example 43, (S)-6-(6-Chloro-5-fluoro-2-oxo-1,2-dihydrospiro[benzo[d][1,3]oxazine-4,3′-pyrrolidin]-1′-yl)-N-((6-(4-methylpiperazin-1-yl)pyridin-3-yl)methyl)pyrazine-2-carboxamide]"
5.12,7.23,"CCC(F)(F)NCc1ccc(CNC(=O)c2cnnc(N3CC[C@]4(C3)OC(=O)Nc3ccc(Cl)c(F)c34)c2)cc1 [Example 44, (S)-6-(6-Chloro-5-fluoro-2-oxo-1,2-dihydrospiro[benzo[d][1,3]oxazine-4,3′-pyrrolidin]-1′-yl)-N-(4-(((1,1-difluoropropyl)amino)methyl)benzyl)pyridazine-4-carboxamide]"
5.00,7.80,"CCC(C)NCc1ccc(CNC(=O)c2cnnc(N3CC[C@]4(C3)OC(=O)Nc3ccc(Cl)c(F)c34)c2)cc1 (stereo partly drawn) [Example 45, N-(4-((sec-Butylamino)methyl)benzyl)-6-((S)-6-chloro-5-fluoro-2-oxo-1,2-dihydrospiro[benzo[d][1,3]oxazine-4,3′-pyrrolidin]-1′-yl)pyridazine-4-carboxamide]"
5.00,7.42,"CCC(NCc1ccc(CNC(=O)c2cnnc(N3CC[C@]4(C3)OC(=O)Nc3ccc(Cl)c(F)c34)c2)cc1)C(F)(F)F (stereo partly drawn) [Example 46, (S)-6-(6-Chloro-5-fluoro-2-oxo-1,2-dihydrospiro[benzo[d][1,3]oxazine-4,3′-pyrrolidin]-1′-yl)-N-(4-(((1,1,1-trifluorobutan-2-yl)amino)methyl)benzyl) pyridazine-4-carboxamide]"
5.00,7.86,"O=C1Nc2ccc(Cl)c(F)c2[C@]2(CCN(c3cc(C(=O)NCc4ccc(CN5CC(F)C5)cc4)cnn3)C2)O1 [Example 47, (S)-6-(6-chloro-5-fluoro-2-oxo-1,2-dihydrospiro[benzo[d][1,3]oxazine-4,3′-pyrrolidin]-1′-yl)-N-(4-((3-fluoroazetidin-1-yl)methyl)benzyl)pyridazine-4-carboxamide]"
5.00,8.23,"CC(C)N(C)Cc1ccc(CNC(=O)c2cnnc(N3CC[C@]4(C3)OC(=O)Nc3ccc(Cl)c(F)c34)c2)cc1 [Example 48, (S)-6-(6-Chloro-5-fluoro-2-oxo-1,2-dihydrospiro[benzo[d][1,3]oxazine-4,3′-pyrrolidin]-1′-yl)-N-(4-((isopropyl(methyl)amino)methyl)benzyl)pyridazine-4-carboxamide]"
5.00,8.05,"N#CCCN(Cc1ccc(CNC(=O)c2cnnc(N3CC[C@]4(C3)OC(=O)Nc3ccc(Cl)c(F)c34)c2)cc1)C1CC1 [Example 49, (S)-6-(6-Chloro-5-fluoro-2-oxo-1,2-dihydrospiro[benzo[d][1,3]oxazine-4,3′-pyrrolidin]-1′-yl)-N-(4-(((2-cyanoethyl)(cyclopropyl)amino)methyl)benzyl)pyridazine-4-carboxamide]"
5.00,7.58,"N#CC1(F)CN(Cc2ccc(CNC(=O)c3cnnc(N4CC[C@]5(C4)OC(=O)Nc4ccc(Cl)c(F)c45)c3)cc2)C1 [Example 50, (S)-6-(6-Chloro-5-fluoro-2-oxo-1,2-dihydrospiro[benzo[d][1,3]oxazine-4,3′-pyrrolidin]-1′-yl)-N-(4-((3-cyano-3-fluoroazetidin-1-yl)methyl)benzyl)pyridazine-4-carboxamide]"
5.00,7.34,"O=C1Nc2ccc(Cl)c(F)c2[C@]2(CCN(c3cncc4c3CCN(Cc3ccc(Cn5ccccc5=O)cc3)C4)C2)O1 [Example 51, (S)-6-Chloro-5-fluoro-1′-(7-(4-((2-oxopyridin-1(2H)-yl)methyl)benzyl)-5,6,7,8-tetrahydro-2,7-naphthyridin-4-yl)spiro[benzo[d][1,3]oxazine-4,3′-pyrrolidin]-2(1H)-one]"
5.00,7.72,"O=C(Cc1ccc(Cn2ccccc2=O)cc1)Nc1cncc(N2CC[C@]3(C2)OC(=O)Nc2ccc(Cl)c(F)c23)c1 [Example 52, (S)-N-(5-(6-Chloro-5-fluoro-2-oxo-1,2-dihydrospiro[benzo[d][1,3]oxazine-4,3′-pyrrolidin]-1′-yl)pyridin-3-yl)-2-(4-((2-oxopyridin-1(2H)-yl)methyl)phenyl)acetamide]"

# Source: US20240190892A1, “PLASMA KALLIKREIN INHIBITORS” (Merck Sharp & Dohme LLC, priority 2021, published 2024)
